These results are taken from patent US9644000B2, “V1a receptor agonists” (Ferring B.V., priority 2012, dated 2017).

For one experiment, the target named is T1, human V1aR (Homo sapiens, UniProt P37288).
T1 construct: expressed in transfected cells
Description: FLIPR calcium agonist assay in HEK-flpin cells expressing the vasopressin V1a receptor. The class given is cell-based. As for the experimental part:
Efficacy (% MPE) is also determined as the percentage of maximal possible effect. This agonist assay utilizes cells from a stable cell line (HEK-flpin) expressing the vasopressin V1a receptor. Intracellular calcium increase in response to agonist is measured through real-time fluorescence of an intracellular calcium-sensitive dye. Cells are exposed to varying concentrations of test agonist compounds whereupon release of intracellular calcium is measured to determine the agonist potency and efficacy.
The cell line stably expresses the lacZ-Zeocin™ fusion gene and is designed for use with the Flp-In™ expression vector containing the gene of interest and the Flp recombinase expression plasmid, pOG44. The cell line contains a single integrated Flp Recombination Target (FRT) site from pFRT/lacZeo or pFRT/lacZeo2. To generate the HEK-flpin cell line stably expressing the human V1aR, the cells were co-transfected with the Flp-In™ expression vector containing the gene of interest (pcDNA5/FRT-hV1aR) and the Flp recombinase expression plasmid pOG44. Flp recombinase mediates insertion of the Flp-In™ expression vector into the genome at the integrated FRT site through site-specific DNA recombination. Stable cell lines expressing the hV1aR from the Flp-In™ expression vector can be generated by selection using hygromycin B. See Life Technologies/Invitrogen manual, Growth and Maintenance of Flp-In™ Cell Lines, Version E, published Feb.
Efficacy of this compound was set to be 100%. A stock solution of 5 mM was made up in DMSO and stored at −20° C.
HEK-flpin-hV1aR, cmcqV1aR, dV1aR and pV1aR cells were maintained in DMEM containing 10% (v/v) FBS-HI, 4 mM GlutaMAX™-I, 25 μg/mL Hygromycin B at 37° C. under 5% CO2 in a humidified atmosphere. […]
The cell plates were transferred to FLIPR Tetra, along with a 384 well V-bottom plate pre-loaded with half-log concentrations of test compounds at 10× final test concentrations. […] The agonist-induced fluorescence signal was then measured for 180 s with initial 120 readings at 1-second intervals followed by 20 readings at 3-second intervals. […]

The conditions of experiment [1]: HRS1 patients; cited from earlier work.

*1 amine or outer side, *2 acyl side, *3 side chain or, on linkers, in order; H or OH if unused. Where a SMILES comes first, the peptide text is derived from it. Bridges are numbered along the chain shown (N, C = ends). Roman numbers before positions name the chains, in order. [ ]: non-standard residue; d: D form. The star is where a group is joined. d(isoGln) = NC(=O)[C@@H](CCC(=O)[*:2])N[*:1]; isoGln = NC(=O)[C@H](CCC(=O)[*:2])N[*:1]; d(εLys) = N[C@H](CCCCN[*:1])C(=O)[*:2]; Aad = N[C@@H](CCCC(=O)O)C(=O)O; Cit = NC(=O)NCCC[C@H](N)C(=O)O; Dab = NCC[C@H](N)C(=O)O; PhAc = O=C(Cc1ccccc1)*

T1 sequence (P37288 whole entry): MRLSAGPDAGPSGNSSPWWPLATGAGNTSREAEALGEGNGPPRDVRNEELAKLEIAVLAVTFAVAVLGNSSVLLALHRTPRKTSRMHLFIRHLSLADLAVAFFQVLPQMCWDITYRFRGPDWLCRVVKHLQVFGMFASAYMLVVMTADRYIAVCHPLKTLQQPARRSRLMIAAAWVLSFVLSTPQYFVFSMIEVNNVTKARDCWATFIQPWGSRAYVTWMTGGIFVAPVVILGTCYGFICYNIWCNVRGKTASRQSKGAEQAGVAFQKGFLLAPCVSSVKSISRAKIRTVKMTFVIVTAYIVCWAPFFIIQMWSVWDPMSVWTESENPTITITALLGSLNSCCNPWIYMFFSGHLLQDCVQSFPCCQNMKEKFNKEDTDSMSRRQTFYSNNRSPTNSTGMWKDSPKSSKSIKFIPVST

`CC[C@H](C)[C@@H]1NC(=O)[C@H](Cc2ccccc2)NC(=O)[C@@H](N)CSSC[C@@H](C(=O)N2CCC[C@H]2C(=O)N[C@@H](CCNC(=O)[C@H](N)CCCCNC(=O)CC[C@H](NC(=O)[C@H](CCCNC(=N)N)NC(=O)[C@@H]2CCCN2C(=O)[C@H](C)NC(=O)[C@H](CC(N)=O)NC(=O)[C@H](CCC(N)=O)NC(=O)[C@H](Cc2ccccc2)NC(=O)[C@@H](Cc2ccc(OC)cc2)NC(=O)Cc2ccccc2)C(N)=O)C(=O)NCC(N)=O)NC(=O)[C@H](CC(N)=O)NC(=O)[C@H](CCCC(N)=O)NC1=O` [Compound 62] (I: H-CFI[Aad](NH2)NCP[Dab]G-NH2 / II: PhAc-[dY](Me)FQNAPR[isoGln][d(εLys)]; disulfide I:1-I:6; amide I:8-II:C): on human V1aR (HEK-flpin-hV1aR cells, AVP efficacy set to 100%), the “Efficacy Avg. (% MPE, as compared to AVP)” value is recorded as 31%. Regarding `CC[C@H](C)[C@@H]1NC(=O)[C@H](Cc2ccccc2)NC(=O)[C@@H](N)CSSC[C@@H](C(=O)N2CCC[C@H]2C(=O)N[C@@H](CCNC(=O)[C@H](N)CCCCNC(=O)CC[C@@H](NC(=O)[C@H](CCCNC(=N)N)NC(=O)[C@@H]2CCCN2C(=O)[C@H](CCCNC(N)=O)NC(=O)[C@H](CC(N)=O)NC(=O)[C@H](CCC(N)=O)NC(=O)[C@H](Cc2ccccc2)NC(=O)[C@@H](Cc2ccc(OC)cc2)NC(=O)Cc2ccccc2)C(N)=O)C(=O)NCC(N)=O)NC(=O)[C@H](CC(N)=O)NC(=O)[C@H](CCC(N)=O)NC1=O` [Compound 55] (I: H-CFIQNCP[Dab]G-NH2 / II: PhAc-[dY](Me)FQN[Cit]PR[d(isoGln)][d(εLys)]; disulfide I:1-I:6; amide I:8-II:C), the EC50 on human V1aR was 1.7 nM.

For the compound `CC[C@H](C)[C@@H]1NC(=O)[C@H](Cc2ccccc2)NC(=O)[C@@H](N)CSSC[C@@H](C(=O)N2CCC[C@H]2C(=O)N[C@@H](CCNC(=O)[C@H](N)CCCCNC(=O)CC[C@H](NC(=O)[C@H](CCCNC(=N)N)NC(=O)[C@@H]2CCCN2C(=O)[C@H](CCN)NC(=O)[C@H](CC(N)=O)NC(=O)[C@H](CCC(N)=O)NC(=O)[C@H](Cc2ccccc2)NC(=O)[C@@H](Cc2ccc(OC)cc2)NC(=O)Cc2ccccc2)C(N)=O)C(=O)NCC(N)=O)NC(=O)[C@H](CC(N)=O)NC(=O)[C@H](CC(N)=O)NC1=O` [Compound 59] (I: H-CFINNCP[Dab]G-NH2 / II: PhAc-[dY](Me)FQN[Dab]PR[isoGln][d(εLys)]; disulfide I:1-I:6; amide I:8-II:C), the EC50 on human V1aR turned out to be 1.7 nM. Regarding `NCCCC[C@H](NC(=O)[C@@H]1CCCN1C(=O)[C@@H]1CSSC[C@H](NC(=O)CNC(=O)CNC(=O)CN)C(=O)N[C@@H](Cc2ccc(O)cc2)C(=O)N[C@@H](Cc2ccccc2)C(=O)N[C@@H](CCC(N)=O)C(=O)N[C@@H](CC(N)=O)C(=O)N1)C(=O)NCC(N)=O` [Terlipressin, terlipressin] (H-GGGCYFQNCPKG-NH2; disulfide 4-9), the “patients in whom renal failure is reversed” value in experiment [1] is 30-40%.

For orientation: EC50 means the concentration that produces a half-maximal response.
